Laboratory results: patent US12414983B2, “CD200AR ligands for cancer immunotherapy” (REGENTS OF THE UNIVERSITY OF MINNESOTA, priority 2019, dated 2025)

B1: CD200: CD200 immune checkpoint protein used to pulse splenocytes (protein, UniProt O54901 31-278, looked up)
OX-2 membrane glycoprotein: QVEVVTQDERKALHTTASLRCSLKTSQEPLIVTWQKKKAVSPENMVTYSKTHGVVIQPAYKDRINVTELGLWNSSITFWNTTLEDEGCYMCLFNTFGSQKVSGTACLTLYVQPIVHLHYNYFEDHLNITCSATARPAPAISWKGTGTGIENSTESHFHSNGTTSVTSILRVKDPKTQVGKEVICQVLYLGNVIDYKQSLDKGFWFSVPLLLSIVSLVILLVLISILLYWKRHRNQERGESSQGMQRMK

Key:
T-lymphocytes = assay: P4A10 priming prior to antigen presentation, CD200R1 expression; assay type: cell-based; conditions: not observed in mock-treated cells, FIG. 7d
Text: The efficacy of the P4A10+autologous tumor lysate strategy in this context creates an interesting conundrum. The T-cells that respond to APC presentation following stimulation express the inhibitory CD200R129. The immune-stimulatory effects of these primed T-cells, therefore, are expected to be blunted upon entry into a glioblastoma microenvironment that is replete with soluble and tumor-expressed CD200. […] Such suppression was not observed in mock-treated cells. Similar downregulation of PD-1 was observed on APCs (p=0.005, FIG. 7c).

Human CD14+ cells = assay: Cytokine measurements in CD14+ cells pulsed with CD200AR-L peptide; assay type: cell-based; conditions: for secretion of inflammatory cytokines from CD14+ cells: selection among 61 alanine-substituted peptides; for IL-1β in supernatant / TNFα in supernatant: CD14+ cells pulsed with peptide, 48 h, compared with non-pulsed controls
Method: Cytokine measurements. Human CD14^+ cells (5×10^5) were isolated from peripheral blood mononuclear cells (PBMCs) using anti-CD14 beads (BD Biosciences, San Jose, CA), typically yielding ≥70% recovery and ≥90% purity. Cells were pulsed with 2 μM CD200AR-L peptide and incubated for 48 h, after which the supernatants were analyzed by bead array for cytokine production (BD Biosciences, San Jose, CA).

CD14+ cells [1] = assay: RNAseq / NanoString gene expression analysis of pulsed CD14+ cells; assay type: cell-based, human; conditions: for mRNA expression of TNF-regulated cytokines: NanoString platform, FIG. 3b; for mRNA expression of cytokines released in response to TNF signaling: RNAseq, CD14+ cells
Text: Nanostring gene expression analysis: Total RNA from CD14^+ cells was sent to New Zealand Genomics Limited (Dunedin, New Zealand) to measure the expression of genes that are differentially expressed during inflammation (nCounter GX, NanoString Technologies, Seattle, WA, USA). Briefly, total RNA was extracted from CD14^+ cells (MagJET RNA kit, Thermo Fisher Scientific, Waltham, MA) using the protocol adapted for tissue (KingFisher Duo machine, Thermo Fisher Scientific, Waltham, MA). RNA samples were then quantified (Qubit® 2.0 fluorometer, Thermo Fisher Scientific) and subjected to RNA integrity analysis (2100 Bioanalyzer, Agilent Technologies, Santa Clara, CA). Probes for the genes encoding CD44 (NM_001001392.1); NANOG (NM_024865.2); OCT4 (NM_002701.4); STAT3 (NM_139276.2); and the housekeeping genes glucuronidase beta (NM_000181.1), clathrin heavy chain (NM 4859.2), and hypoxanthine phosphoribosyltransferase 1 (NM_000194.1) were designed and manufactured by NanoString Technologies.
Expression data obtained with NanoString GX were analyzed by using nSolver Analysis Software 3.0 (nanostring.com/products/nSolver) with default settings, and normalized to housekeeping genes. nSolver was used to perform cluster analysis and to generate heat maps by using Java Treeview Version 1.1.6r4. Pathway analysis was performed by using the PathCards Pathway Unification Database (pathcards.genecards.org). Student's t-tests were used to determine significant differences (p<0.05).

CD14+ cells [2] = assay: Dendritic cell maturation: phenotyping for CD80, CD86, HLA-DR; assay type: cell-based, human; conditions: peptide alone compared with GM-CSF+IL4, p<0.0001
Method: FIGS. 4A-4D. Targeting CD200 activation receptors enhances dendritic cell maturation. (FIGS. 4A, 4B) CD14 purified cells were pulsed with (FIG. 4A) GM-CSF+IL4 or equal molar ratios of peptides P1A8, P2A0, or P4A10 or (FIG. 4B) GM-CSF+IL4 plus equal molar ratios of peptides P1A8, P2A0, or P4A10 and incubated for 48 h. Cells were harvested and phenotyped for CD80, CD86, and HLA-DR. (FIG. 4C) Immature dendritic cells from donors with or without CMV were pulsed with the CMV antigen pp65+/−equal molar ratios of peptides P1A8, P2A0, or P4A10. Cells were washed, and autologous T-cells were added back and incubated for a further 48 h. Supernatants were analyzed for IFNγ production. (FIG. 4D) Immature dendritic cells were pulsed with the CMV antigen pp65+/−P4A10. After the cells were washed, autologous T-cells were added back and incubated for a further 48 h. Supernatants were analyzed for IFNγ, IL-6, TNFα and RANTES content. Error bars represent standard deviation (n=3 healthy donors/group, *P<0.05, **P<0.005, ***P<0.0005 by t-test). The data represent three separate healthy donors. Black bars represent CMV-negative donors.
Targeting CD200 activation receptors enhances dendritic cell maturation. TNF-regulated cytokines (Table 1) have been implicated in dendritic cell maturation. […] To substantiate this, CD14^+ cells were isolated from healthy human donors and pulsed with GM-CSF+IL4, P1A8, P2A0, or P4A10 27. Cells pulsed with P1A8, P2A0, and P4A10 expressed higher levels of the co-stimulatory molecules CD80, CD86, and HLA-DR than cells treated with GM-CSF+IL4 (p<0.0001; FIG. 4a). Moreover, we observed synergistic upregulation of CD80/86 and HLA-DR when CD14^+ cells were incubated with GM-CSF+IL4 and each of the peptides (p<0.0001) (FIG. 4b).

[3] = test system: immature dendritic cells (iDCs) and autologous T-cells; assay: CMV assay: iDCs pulsed with pp65 +/- peptide, then co-incubated with T-cells; assay type: cell-based, human; conditions: for antigen-specific response, production of IFNγ: pp65+CD200AR-L peptide compared with pp65 alone
Method: Dendritic cell differentiation. Cytomegalovirus (CMV)-positive HLA-A2^+ lymphocyte packs were obtained from the American Red Cross, and CD14^+ cells were purified. Approximately 1×10^8 CD14^+ cells were cultured in polystyrene tissue-culture flasks at 37° C. in 5% CO2. GM-CSF (25 ng/mL) and IL-4 (40 ng/mL) were both added on days 3 and 5 to derive immature dendritic cells (iDCs).
CMV assay. iDCs (5×10^5) were pulsed with 10 μg of CMV antigen peptide pp65495-503 (NLVPMVATV) and cultured as described above. The iDCs were then washed three times, and 5×10^5 CD8^+ T-cells from CMV-positive donors were co-incubated with the pulsed iDCs. CMV-negative PBMCs were used as a negative control. Supernatants were collected after 48 h of incubation and analyzed for IFNγ production by cytometric bead array (BD Biosciences).
To assess the effects of P1A8, P2A0, and P4A10 on the antigen-specific response, we measured IFNγ release in the following assay. iDCs were pulsed with the CMV antigen pp65 with and without an equimolar amount of P1A8, P2A0, or P4A10. Autologous T-cells were then added and incubated with the iDCs for 48 h, after which IFNγ production was measured in the supernatants. Exposure to pp65 increased T-cell IFNγ production approximately 4-fold (FIG. 4c). Co-treatment of iDCs with pp65 and P1A8, P2A0, or P4A10 increased IFNγ release by an additional 2- to 3-fold over pp65 alone.

Splenocytes = Splenocytes pulsed with CD200 or PD-L1 +/- mCD200AR-L, flow cytometry for CTLA4 and PD-L1; assay type: cell-based; conditions: splenocytes pulsed with CD200 or PD-L1
Method: FIGS. 14A-14C. […] Splenocytes were pulsed with CD200, PD-L1+/−mCD200AR-L. Cells were analyzed by flow cytometry for the (FIG. 14A) CD4^+CTLA4^+, (FIG. 14B) CD8^+CTLA4^+or (FIG. 14C) CD11b^+PD-L1^+ populations. Error bars are representative of n=2 *P<0.005, **P<0.0001.
We propose that soluble CD200 and PD-L1 inhibit T cell activation through multiple checkpoints (FIG. 10). Therefore, the effect of multiple suppressive molecules (CD200 and PD-L1) on T cell inhibition was investigated. […] In addition, following PD-L1 treatment, an upregulation of PD-L1 on CD11b and an upregulation of CTLA4 was observed on T cells. Being CTLA4 and PD-L1 propagate separate inhibitory signals, it was hypothesized that PD-L1 inhibits T cell activation through 1) direct CD200 and PD-L1 on T cells and 2) direct PD-L1 (on APCs)/PD-I (on […]) producing cytokines upregulating CTLA4, which would explain the enhanced responses seen in combination α-PD-1 and α-CTLA4 treatments. However, neither of them inhibit CD200 effect on T cells.
We next looked at the effects of CD200AR-L on T cell inhibition. […] Being CTLA4 and PD-L1 propagate separate inhibitory signals, we hypothesize that PD-L1 inhibits T cell activation through two separate mechanisms, 1) through direct PD-L1 (on APCs)/PD-I (on T cells) interactions and through cytokine production following PD-L1 binding to the PD-1 on CD11b cell, which would explain the enhanced responses seen in combination α-PD-1 and α-CTLA4 treatments.

Molecule	secretion of inflammatory cytokines from CD14+ cells (Human CD14+ cells)	IL-1β in supernatant (Human CD14+ cells)	TNFα in supernatant (Human CD14+ cells)	antigen-specific response, production of IFNγ [3]	other results
CLFNTFGFGAISGTA (Ac-CLFNTFGFGAISGTA-NH2; listed as Homo sapiens) [P4A10]	maximally stimulated				CD200R1 expression (T-lymphocytes): suppressed; mRNA expression of TNF-regulated cytokines (CD14+ cells [1]): most potently and consistently induced; mRNA expression of cytokines released in response to TNF signaling (CD14+ cells [1]): notable increase; levels of co-stimulatory molecules CD80, CD86, and HLA-DR (CD14+ cells [2]): higher levels
CLFNTFGFGKISGTA (Ac-CLFNTFGFGKISGTA-NH2; listed as Homo sapiens) [P4]		statistically significant increases	statistically significant increases	significant antigen-specific response	
IVTWQKKKAVSPENM (Ac-IVTWQKKKAVSPENM-NH2; listed as Homo sapiens) [P1]		statistically significant increases	statistically significant increases	significant antigen-specific response	
NITLADEGCYMCLFN (Ac-NITLADEGCYMCLFN-NH2; cysteine pairing not given here; listed as Homo sapiens) [P2A5]	maximally stimulated				
NITLEDEGCYMCLFN (Ac-NITLEDEGCYMCLFN-NH2; cysteine pairing not given here; listed as Homo sapiens) [P2A0]	maximally stimulated				mRNA expression of TNF-regulated cytokines (CD14+ cells [1]): most potently and consistently induced; mRNA expression of cytokines released in response to TNF signaling (CD14+ cells [1]): notable increase; levels of co-stimulatory molecules CD80, CD86, and HLA-DR (CD14+ cells [2]): higher levels
NITLEDEGCYMCLFN (Ac-NITLEDEGCYMCLFN-NH2; cysteine pairing not given here; listed as Homo sapiens) [P2]		statistically significant increases	statistically significant increases	significant antigen-specific response	
NLVPMVATV [pp65, CMV antigen peptide pp65495-503, reference compound]					increase of T-cell IFNγ production ([3]; exposure to pp65 alone, FIG. 4c): approximately 4 fold
VTFSENHGVVIAPAY (Ac-VTFSENHGVVIAPAY-NH2; listed as Homo sapiens) [P3A12]	maximally stimulated				
VTFSENHGVVIQPAY (Ac-VTFSENHGVVIQPAY-NH2; listed as Homo sapiens) [P3]		statistically significant increases	statistically significant increases	significant antigen-specific response	
B1					CTLA4 on CD4 cells (Splenocytes): upregulation; CTLA4 on CD8 cells (Splenocytes): not on CD8 cells
